Experimental data as given in patent US20240207265A1, “TREATMENT OF CNS DISEASES WITH sGC STIMULATORS” (Tisento Therapeutics Inc., priority 2021, published 2024).

Assays:
[1] = test system: MK-801-induced memory deficit; test: Novel Object Recognition (NOR) test, MK-801-induced memory disruption; format: in vivo, rat; details: for Recognition Index vs Vehicle-MK-801 group: 1 mg/kg PO 60 min prior to training, MK-801 0.1 mg/kg; for side effects in NOR study: any dose tested, oral, Long Evans rats
Experimental: In the present study, a memory saving model was used. MK-801 (Dizocilpine), an uncompetitive antagonist of the NMDA receptor was used to cause deficit of recognition memory. sGC stimulators were evaluated for their efficacy to prevent memory impairment induced by MK-801.
Adult male Long-Evans rats (275-299 gram at arrival from Envigo, Indianapolis, IN) were used in this study. Rats were placed in the experimental rooms and assigned unique identification numbers (tail marks). Rats were housed 2 per cage in polycarbonate cages with filter tops and acclimated for at least 7 days prior to testing. Animal room was maintained in a 12/12 h light/dark cycle (lights on at 07.00 EST), 22±1° C. and relative humidity at approximately 50%. Food and water were provided ad libitum. All animals were examined, handled and weighed prior to the study to assure adequate health and to minimize the non-specific stress associated with testing. Each animal was randomly assigned across the treatment groups. The experiments were conducted during the animal's light cycle phase.
MK-801 (0.1 mg/kg; Sigma-Aldrich) was dissolved in saline and injected IP, 15 min prior to NOR training. The dose volume was 1 ml/kg.
Galantamine (1 mg/kg; Tocris) was dissolved in saline and injected IP, 15 minutes prior to training. The dose volume was 1 ml/kg.
Compound I-20 (0.03, 0.3 and 1 mg/kg) was formulated in vehicle (0.5% (w/w) methyl cellulose and 0.5% (w/w) Tween 80 in ultrapure water) and orally dosed 60 min prior to NOR training at 2 ml/kg dose volume.
Compound I-14 (0.01, 0.1 and 1 mg/kg) was formulated as its Na+ salt as a solution in MilliQ water and stored as frozen aliquots. The aliquots of compound solutions and compound vehicle were stored in −80° C. and freshly thawed on each testing day. The compound and vehicle were orally dosed 60 minutes prior to NOR training. The dose volume was 10 ml/kg.
NOR test was conducted in an open-field arena (40×40 cm) placed in a sound-attenuated room under dimmed lighting. Each rat was tested separately, and care was taken to remove olfactory/taste cues by cleaning the arena and test objects with 70% alcohol between trials and rats. All training and testing trials were video-taped and scored by an observer blind to treatments.
On Days 1 and 2, rats were allowed to freely explore the arena (no objects inside) for a 5-minute habituation period. On Day 3 (training and testing day), rats were administered vehicle, saline and/or compound solution according to corresponding pretreatment, which is defined as time between injection and start of NOR training. Each animal was placed into the test arena in the presence of two identical objects. Each rat was placed in the arena facing the same direction at the same position, and the time spent actively exploring the objects during a 3-minute training period (T1) was recorded. The rat was returned to its home cage following training. NOR test (T2) was conducted 1 hour after T1. Each rat was placed back into the test arena in the presence of one familiar object and one novel object for 5 minutes, and the time spent exploring both objects was recorded. […]
Data of NOR test (T2) were expressed as Recognition Index, which is defined as the ratio of the time spent exploring the novel object over the total time spent exploring both objects (Novel/(Familiar+Novel)×100%) during the test session.
For Compound I-14, data were analyzed in two batches separately. […] Data were analyzed with t-test to evaluate the validity of the test. […]

[2] = Non-human primate CSF pharmacokinetics (Study A); format: in vivo, Cynomolgus monkeys; details: female, cynomolgus monkey, NHP CSF (cisterna magna)/unbound plasma, sodium salt
Experimental: PK in NHP was determined following oral dosing (PO). A group of 4 female Cynomolgus monkeys were used for studying each compound. Compound I-20 sodium salt was formulated as a 0.06 mg/mL solution in MilliQ water. Compound I-14 sodium salt was formulated as 0.2 mg/mL solution in MilliQ water. Formulations were shipped frozen on dry ice and then thawed and mixed thoroughly prior to dosing. PO doses of 1 mg/kg for Compound I-14 and 0.3 mg/kg for Compound I-20 were administered by oral gavage.
Plasma and CSF samples were collected as follows: samples of CSF were collected at 3 and 24 hours post PO dosing. CSF samples (0.125 mL) were collected at the cisterna magna via direct needle puncture by direct dilution. Blood samples (0.8 mL) were collected from a peripheral vein at 0, 0.25, 0.5, 1, 2, 3, 6, 8, […], 24, 32 and 48 or 72 hours. These samples were kept on ice until processed for plasma. Blood samples were protein precipitated using acetonitrile. Plasma was directly transferred to individual tubes (0.125 mL) and K2EDTA was used as the anticoagulant. Plug caps were placed on the tubes and the tubes frozen at approximately −70° C. and stored until analysis. Plasma and CSF was collected and analyzed for the presence of compound.
Plasma and CSF samples were analyzed using liquid chromatography (LC) with tandem mass spectrometric detection (MS/MS) using positive electrospray ionization. The standard curve range was from 0.1 to 1000 ng/mL.
The geometrical means for the values obtained for the 4 animals in each compound's study was obtained for concentrations in CSF and in Plasma, respectively.
Kp,uu is defined as the concentration ratio of unbound drug in CSF to unbound drug in plasma. Unbound drug in plasma (or free plasma concentration) is calculated by multiplying the total plasma concentration by the unbound fraction as determined by plasma protein binding. The CSF concentration is then divided by the free plasma concentration to determine the Kp,uu. (See e.g., Di et al., J. Med. Chem., 56, 2-12 (2013))

| Kp uu at 3 h ([2]; PO 1 mg/kg) | Kp uu at 24 h ([2]; PO 1 mg/kg) | Kp uu at 3 h ([2]; PO 0.3 mg/kg) | Kp uu at 24 h ([2]; PO 0.3 mg/kg) | Compound | Recognition Index vs Vehicle-MK-801 group ([1]; 0-1 minute time range) | Recognition Index vs Vehicle-MK-801 group ([1]; 0-3 minute time range) | Recognition Index vs Vehicle-MK-801 group ([1]; 0-5 minute time range) | side effects in NOR study [1] |
| --- | --- | --- | --- | --- | --- | --- | --- | --- |
| 2 to 3 | > 3 |  |  | Cc1cc(F)c(Cc2nc(-c3ncc(F)c(O)n3)cn3ccnc23)cc1F [Compound I-14, 5-fluoro-2-(8-(2,5-difluoro-4-methylbenzyl)imidazo[1,2-a]pyrazin-6-yl)pyrimidin-4-ol] | reversed the deficit | trend (P<0.10) in reversing MK-801-induced memory deficit | significantly higher Recognition Index | None of the rats in this study showed obvious side effects at any dose |
|  |  | ≤ 1 | 1 to 2 | Oc1nc(-c2cn3ccnc3c(Cc3cc(F)ccc3F)n2)ncc1F [Compound I-20, 5-fluoro-2-(8-(2,5-difluorobenzyl)imidazo[1,2-a]pyrazin-6-yl)pyrimidin-4-ol] |  |  |  | None of the rats in this study showed obvious side effects at any dose |
